The subject of the assay is MV-4-11 cells. Description: Gene expression microarray analysis (Affymetrix PrimeView) and GSEA. Type of assay: cell-based, human. Also noted: RFU PODN (11730768_x_at) / Fold change /veh PODN (11730768_x_at) / RFU LINC00158 (11744669_a_at) / Fold change /veh LINC00158 (11744669_a_at) / RFU DUSP10 (11751237_a_at) / Fold change /veh DUSP10 (11751237_a_at) / RFU ID3 (11757404_x_at) / Fold change /veh ID3 (11757404_x_at) / RFU PLEKHG5 (11737974_s_at) / Fold change /veh PLEKHG5 (11737974_s_at) / RFU LRRC4B (11730491_at) / Fold change /veh LRRC4B (11730491_at) / RFU GIMAP4 (11747438_a_at) / Fold change /veh GIMAP4 (11747438_a_at) / RFU KRT8 (11758183_x_at) / Fold change /veh KRT8 (11758183_x_at) / RFU CNN1 (11734310_a_at) / Fold change /veh CNN1 (11734310_a_at) / RFU VPS37D (11726825_at) / Fold change /veh VPS37D (11726825_at) / RFU C10orf10 (11716522_x_at) / Fold change /veh C10orf10 (11716522_x_at) / RFU KIR2DL2 /// KIR2DL4 /// KIR2DL5A /// KIR2DL5B /// KIR2DS1 /// KIR2DS2 /// KIR2DS3 /// KIR2DS4 /// KIR3DL3 /// KIR3DL3 /// KIR3DS1 (11738374_at) / Fold change /veh KIR2DL2 /// KIR2DL4 /// KIR2DL5A /// KIR2DL5B /// KIR2DS1 /// KIR2DS2 /// KIR2DS3 /// KIR2DS4 /// KIR3DL3 /// KIR3DL3 /// KIR3DS1 (11738374_at) / RFU C1QL1 (11718748_at) / Fold change /veh C1QL1 (11718748_at) / RFU TMPRSS4 (11747572_a_at) / Fold change /veh TMPRSS4 (11747572_a_at) / RFU HAMP (11756126_x_at) / Fold change /veh HAMP (11756126_x_at) / RFU RNFT2 (11725882_a_at) / Fold change /veh RNFT2 (11725882_a_at) / RFU NR4A2 (11747474_a_at) / Fold change /veh NR4A2 (11747474_a_at) / RFU ABCC12 (11746883_a_at) / Fold change /veh ABCC12 (11746883_a_at) / RFU TMEM136 (11760407_x_at) / Fold change /veh TMEM136 (11760407_x_at) / RFU CLDN22 /// WWC2 (11732394_at) / Fold change /veh CLDN22 /// WWC2 (11732394_at) / RFU HLA-DPB1 (11760878_x_at) / Fold change /veh HLA-DPB1 (11760878_x_at) / RFU SPINT1 (11716480_a_at) / Fold change /veh SPINT1 (11716480_a_at) / RFU GAP43 (11754022_s_at) / Fold change /veh GAP43 (11754022_s_at) / RFU A4GNT (11735810_at) / Fold change /veh A4GNT (11735810_at) / RFU PRB3 (11715151_x_at) / Fold change /veh PRB3 (11715151_x_at) / RFU TUBB4B (11761932_at) / Fold change /veh TUBB4B (11761932_at) / RFU CAPN14 (11732068_a_at) / Fold change /veh CAPN14 (11732068_a_at) / RFU TMCC2 (11721928_a_at) / Fold change /veh TMCC2 (11721928_a_at) / RFU IRGQ (11745062_a_at) / Fold change /veh IRGQ (11745062_a_at) / RFU FAM174B (11720279_a_at) / Fold change /veh FAM174B (11720279_a_at) / RFU TMPRSS4 (11748680_a_at) / Fold change /veh TMPRSS4 (11748680_a_at) / RFU FAM212B (11763350_a_at) / Fold change /veh FAM212B (11763350_a_at) / RFU PLEKHG5 (11743358_a_at) / Fold change /veh PLEKHG5 (11743358_a_at) / RFU ZSCAN30 (11745921_a_at) / Fold change /veh ZSCAN30 (11745921_a_at) / RFU CMKLR1 (11741424_a_at) / Fold change /veh CMKLR1 (11741424_a_at) / RFU LOC101060620 /// MAPK8IP1 (11723275_at) / Fold change /veh LOC101060620 /// MAPK8IP1 (11723275_at) / RFU SPTSSB (11747773_x_at) / Fold change /veh SPTSSB (11747773_x_at) / RFU PRSS12 (11739890_at) / Fold change /veh PRSS12 (11739890_at) / RFU BIN1 (11741810_x_at) / Fold change /veh BIN1 (11741810_x_at) / RFU WNT11 (11732464_a_at) / Fold change /veh WNT11 (11732464_a_at) / RFU C10orf10 (11716521_a_at) / Fold change /veh C10orf10 (11716521_a_at) / RFU C5orf56 (11738089_at) / Fold change /veh C5orf56 (11738089_at) / RFU CYB561 (11721691_x_at) / Fold change /veh CYB561 (11721691_x_at) / RFU ANKRD19P (11752326_a_at) / Fold change /veh ANKRD19P (11752326_a_at) / RFU OR2T12 /// OR2T33 /// OR2T8 (11738714_s_at) / Fold change /veh OR2T12 /// OR2T33 /// OR2T8 (11738714_s_at) / RFU VCAN (11748164_a_at) / Fold change /veh VCAN (11748164_a_at) / RFU JSRP1 (11732532_at) / Fold change /veh JSRP1 (11732532_at) / RFU KRTAP10-11 (11738290_x_at) / Fold change /veh KRTAP10-11 (11738290_x_at) / RFU MYO3A (11730013_a_at) / Fold change /veh MYO3A (11730013_a_at) / RFU EBF3 (11725865_a_at) / Fold change /veh EBF3 (11725865_a_at) / RFU CAMK2N1 (11719241_x_at) / Fold change /veh CAMK2N1 (11719241_x_at) / RFU C5orf56 (11738088_a_at) / Fold change /veh C5orf56 (11738088_a_at) / RFU OLFML3 (11715873_a_at) / Fold change /veh OLFML3 (11715873_a_at) / RFU LOC100653217 /// NTM (11731650_a_at) / Fold change /veh LOC100653217 /// NTM (11731650_a_at) / RFU MAPK11 (11762145_a_at) / Fold change /veh MAPK11 (11762145_a_at) / RFU FIZ1 (11724087_x_at) / Fold change /veh FIZ1 (11724087_x_at) / RFU OASL (11726364_x_at) / Fold change /veh OASL (11726364_x_at) / RFU SOX15 (11748057_x_at) / Fold change /veh SOX15 (11748057_x_at) / RFU CD79A (11719716_a_at) / Fold change /veh CD79A (11719716_a_at) / RFU HIST1H1D (11736915_at) / Fold change /veh HIST1H1D (11736915_at) / RFU CASKIN2 (11723855_a_at) / Fold change /veh CASKIN2 (11723855_a_at) / RFU LOC730098 (11760151_x_at) / Fold change /veh LOC730098 (11760151_x_at) / RFU OR4N2 (11742367_at) / Fold change /veh OR4N2 (11742367_at) / RFU PRRT2 (11749266_a_at) / Fold change /veh PRRT2 (11749266_a_at) / RFU SNX32 (11753110_a_at) / Fold change /veh SNX32 (11753110_a_at) / RFU CDHR5 (11726645_a_at) / Fold change /veh CDHR5 (11726645_a_at) / RFU RCAN1 (11760418_a_at) / Fold change /veh RCAN1 (11760418_a_at) / RFU FAM167A (11723789_a_at) / Fold change /veh FAM167A (11723789_a_at) / RFU FAM26E (11764081_at) / Fold change /veh FAM26E (11764081_at) / RFU ISYNA1 (11749810_s_at) / Fold change /veh ISYNA1 (11749810_s_at) / RFU ACY1 (11761880_at) / Fold change /veh ACY1 (11761880_at) / RFU 11764098_at / Fold change /veh 11764098_at / RFU SAMD14 (11745864_x_at) / Fold change /veh SAMD14 (11745864_x_at) / RFU NPB (11741838_a_at) / Fold change /veh NPB (11741838_a_at) / RFU TMPRSS6 (11731388_a_at) / Fold change /veh TMPRSS6 (11731388_a_at) / RFU KRTAP10-2 (11738614_at) / Fold change /veh KRTAP10-2 (11738614_at) / RFU ARHGAP8 /// PRR5-ARHGAP8 (11727945_x_at) / Fold change /veh ARHGAP8 /// PRR5-ARHGAP8 (11727945_x_at) / RFU KRTAP5-7 /// NADSYN1 (11734609_at) / Fold change /veh KRTAP5-7 /// NADSYN1 (11734609_at) / RFU RASL12 (11751679_a_at) / Fold change /veh RASL12 (11751679_a_at) / RFU CDKN2B (11736163_a_at) / Fold change /veh CDKN2B (11736163_a_at) / RFU PRF1 (11729649_at) / Fold change /veh PRF1 (11729649_at) / RFU, ZNF638 /// ZNF638-IT1 / Fold change vs veh, ZNF638 /// ZNF638-IT1 / RFU, PANK3 / Fold change vs veh, PANK3 / RFU, SH3YL1 / Fold change vs veh, SH3YL1 / RFU, ZEB2 / Fold change vs veh, ZEB2 / RFU, NRIP1 / Fold change vs veh, NRIP1 / RFU, PTTG1IP / Fold change vs veh, PTTG1IP / RFU, CAPN2 / Fold change vs veh, CAPN2 / RFU, MED14 / Fold change vs veh, MED14 / RFU, SNORA58 / Fold change vs veh, SNORA58 / RFU, C1orf63 / Fold change vs veh, C1orf63 / RFU, LRRFIP1 / Fold change vs veh, LRRFIP1 / RFU, NDUFAF7 / Fold change vs veh, NDUFAF7 / RFU, SLC12A2 / Fold change vs veh, SLC12A2 / RFU, IBTK / Fold change vs veh, IBTK / RFU, ESF1 / Fold change vs veh, ESF1 / Fold change vs veh, TMEM50B / RFU, TAOK1 / Fold change vs veh, TAOK1 / RFU, ACBD3 / Fold change vs veh, ACBD3 / RFU, TMA16 / Fold change vs veh, TMA16 / RFU, RWDD3 / Fold change vs veh, RWDD3 / RFU, BCAT1 / Fold change vs veh, BCAT1 / RFU, EDEM3 / Fold change vs veh, EDEM3 / RFU, TMEM33 / Fold change vs veh, TMEM33 / RFU, WDR75 / Fold change vs veh, WDR75 / RFU, AHCTF1 / Fold change vs veh, AHCTF1 / RFU, TFRC / Fold change vs veh, TFRC / RFU, ZDHHC17 / Fold change vs veh, ZDHHC17 / RFU, NOM1 / Fold change vs veh, NOM1 / RFU, ARL8B / Fold change vs veh, ARL8B / RFU, ZBTB11 / Fold change vs veh, ZBTB11 / RFU, TAMM41 / Fold change vs veh, TAMM41 / RFU, KIAA1704 /// LOC100996395 / Fold change vs veh, KIAA1704 /// LOC100996395 / RFU, ING1 / Fold change vs veh, ING1 / RFU, TRMT61B / Fold change vs veh, TRMT61B / RFU, FUBP3 / Fold change vs veh, FUBP3 / RFU, TP53 / Fold change vs veh, TP53 / RFU, TNKS2 / Fold change vs veh, TNKS2 / RFU, ZFP14 / Fold change vs veh, ZFP14 / RFU, ACTR2 / Fold change vs veh, ACTR2 / RFU, PPP3R1 / Fold change vs veh, PPP3R1 / RFU, PIK3R1 / Fold change vs veh, PIK3R1 / RFU, HNRNPA1 / Fold change vs veh, HNRNPA1 / RFU, RNF170 / Fold change vs veh, RNF170 / RFU, ZNF28 / Fold change vs veh, ZNF28 / RFU, RNGTT / Fold change vs veh, RNGTT / RFU, OGT / Fold change vs veh, OGT / RFU, BRD1 / Fold change vs veh, BRD1 / RFU, MARS / Fold change vs veh, MARS / RFU, ZNF655 / Fold change vs veh, ZNF655 / RFU, FAHD1 / Fold change vs veh, FAHD1 / RFU, BDP1 / Fold change vs veh, BDP1 / RFU, LRRCC1 / Fold change vs veh, LRRCC1 / RFU, ARID1A / Fold change vs veh, ARID1A / RFU, ZNF146 / Fold change vs veh, ZNF146 / RFU, ZNF330 / Fold change vs veh, ZNF330 / RFU, GPN3 / Fold change vs veh, GPN3 / RFU, C9orf123 / Fold change vs veh, C9orf123 / RFU, N4BP2L2 / Fold change vs veh, N4BP2L2 / RFU, ARFIP1 / Fold change vs veh, ARFIP1 / RFU, FAM179B / Fold change vs veh, FAM179B / RFU, BCL10 / Fold change vs veh, BCL10 / RFU, UHRF1BP1L / Fold change vs veh, UHRF1BP1L / RFU, BET1 / Fold change vs veh, BET1 / RFU, CNOT2 / Fold change vs veh, CNOT2 / RFU, ZNF268 / Fold change vs veh, ZNF268 / Fold change vs veh, ZNF507 / RFU, DGCR2 / Fold change vs veh, DGCR2 / RFU, WDSUB1 / Fold change vs veh, WDSUB1 / Fold change vs veh, HSP90B1 /// MIR3652 / RFU, ADSS / Fold change vs veh, ADSS / RFU, GK / Fold change vs veh, GK / RFU, ZNF148 / Fold change vs veh, ZNF148 / RFU, TAF9 / Fold change vs veh, TAF9 / RFU, SLC1A5 / Fold change vs veh, SLC1A5 / RFU, SLMO2 / Fold change vs veh, SLMO2 / RFU, ABCC4 / Fold change vs veh, ABCC4 / RFU, LOC101060439 /// RAP1B / Fold change vs veh, LOC101060439 /// RAP1B / RFU, RFX7 / Fold change vs veh, RFX7 / RFU, GTPBP10 / Fold change vs veh, GTPBP10 / RFU, CNEP1R1 / Fold change vs veh, CNEP1R1 / RFU, BIVM-ERCC5 /// ERCC5 / Fold change vs veh, BIVM-ERCC5 /// ERCC5 / RFU, ILF3 / Fold change vs veh, ILF3 / RFU 11762660_at / Fold change /veh 11762660_at / RFU VCAN (11757783_s_at) / Fold change /veh VCAN (11757783_s_at) / RFU DDX43 (11728927_at) / Fold change /veh DDX43 (11728927_at) / RFU KRT8 (11758188_x_at) / Fold change /veh KRT8 (11758188_x_at) / RFU NKD1 (11759106_at) / Fold change /veh NKD1 (11759106_at) / RFU SRD5A1 (11742802_a_at) / Fold change /veh SRD5A1 (11742802_a_at) / RFU TPSAB1 /// TPSB2 (11721975_s_at) / Fold change /veh TPSAB1 /// TPSB2 (11721975_s_at) / RFU GSTM3 (11746129_a_at) / Fold change /veh GSTM3 (11746129_a_at) / RFU IL23R (11737362_x_at) / Fold change /veh IL23R (11737362_x_at) / RFU TMEM51 (11727254_a_at) / Fold change /veh TMEM51 (11727254_a_at) / RFU PIWIL2 (11732686_x_at) / Fold change /veh PIWIL2 (11732686_x_at) / RFU ORM1 (11744905_x_at) / Fold change /veh ORM1 (11744905_x_at) / RFU CCDC152 (11743942_at) / Fold change /veh CCDC152 (11743942_at) / RFU ECM1 (11717891_a_at) / Fold change /veh ECM1 (11717891_a_at) / RFU IL23R (11748794_a_at) / Fold change /veh IL23R (11748794_a_at) / RFU TNFAIP8L3 (11732012_x_at) / Fold change /veh TNFAIP8L3 (11732012_x_at) / RFU MBOAT4 (11741988_at) / Fold change /veh MBOAT4 (11741988_at) / RFU 11764193_at / Fold change /veh 11764193_at / RFU TMEM53 (11763286_at) / Fold change /veh TMEM53 (11763286_at) / RFU MAGEB2 (11727129_at) / Fold change /veh MAGEB2 (11727129_at) / RFU TMEM200A (11744735_a_at) / Fold change /veh TMEM200A (11744735_a_at) / RFU CCDC152 (11751479_a_at) / Fold change /veh CCDC152 (11751479_a_at) / RFU FAM211A (11726209_a_at) / Fold change /veh FAM211A (11726209_a_at) / RFU RGS16 (11746705_a_at) / Fold change /veh RGS16 (11746705_a_at) / RFU VCAN (11755009_s_at) / Fold change /veh VCAN (11755009_s_at) / RFU RHOB (11743442_s_at) / Fold change /veh RHOB (11743442_s_at) / RFU RGS16 (11720943_a_at) / Fold change /veh RGS16 (11720943_a_at) / RFU RGS16 (11720944_at) / Fold change /veh RGS16 (11720944_at) / RFU, VPS4B / Fold change vs veh, VPS4B / RFU, CREB1 / Fold change vs veh, CREB1 / RFU, DNAJC13 / Fold change vs veh, DNAJC13 / RFU, GNAQ / Fold change vs veh, GNAQ / RFU, CDK5R1 / Fold change vs veh, CDK5R1 / RFU, ZRANB3 / Fold change vs veh, ZRANB3 / RFU, CUL4A / Fold change vs veh, CUL4A / RFU, CCNY / Fold change vs veh, CCNY / RFU, UFL1 / Fold change vs veh, UFL1 / RFU, COG3 / Fold change vs veh, COG3 / RFU, DIAPH2 / Fold change vs veh, DIAPH2 / RFU, SKA2 / Fold change vs veh, SKA2 / RFU, AFF3 / Fold change vs veh, AFF3 / RFU, LMF1 / Fold change vs veh, LMF1 / RFU, IPO11 / Fold change vs veh, IPO11 / RFU, DFFB / Fold change vs veh, DFFB / RFU, FOXP1 / Fold change vs veh, FOXP1 / RFU, CARD8 / Fold change vs veh, CARD8 / RFU, STRN3 / Fold change vs veh, STRN3 / RFU, ADK / Fold change vs veh, ADK / RFU, RASSF2 / Fold change vs veh, RASSF2 / RFU, WIPF1 / Fold change vs veh, WIPF1 / RFU, LARP1B / Fold change vs veh, LARP1B / RFU, RASA1 / Fold change vs veh, RASA1 / RFU, RB1 / Fold change vs veh, RB1 / RFU, PPFIA1 / Fold change vs veh, PPFIA1 / RFU, MAT2A / Fold change vs veh, MAT2A / RFU, CCT5 / Fold change vs veh, CCT5 / RFU, WDR92 / Fold change vs veh, WDR92 / RFU, CUX1 / Fold change vs veh, CUX1 / RFU, TTC7A / Fold change vs veh, TTC7A / RFU, TMEM135 / Fold change vs veh, TMEM135 / RFU, DEPTOR / Fold change vs veh, DEPTOR / RFU, CPM / Fold change vs veh, CPM / RFU, DNAJB6 / Fold change vs veh, DNAJB6 / RFU, CACNA2D3 / Fold change vs veh, CACNA2D3 / RFU, DTX4 / Fold change vs veh, DTX4 / RFU, TFCP2 / Fold change vs veh, TFCP2 / RFU, GMCL1 /// GMCL1P1 / Fold change vs veh, GMCL1 /// GMCL1P1 / RFU, AEBP2 / Fold change vs veh, AEBP2 / RFU, SNHG1 /// SNORD22 /// SNORD25 /// SNORD26 /// SNORD27 /// SNORD28 /// SNORD29 /// SNORD31 / Fold change vs veh, SNHG1 /// SNORD22 /// SNORD25 /// SNORD26 /// SNORD27 /// SNORD28 /// SNORD29 /// SNORD31 / Fold change (Aza/veh), C12orf56 (ProbeSet 11735607_a_at) / Fold change (ACY-1035/veh), C12orf56 (ProbeSet 11735607_a_at) / Fold change (Aza/veh), FGFR1OP (ProbeSet 11751329_s_at) / Fold change (ACY-1035/veh), FGFR1OP (ProbeSet 11751329_s_at) / Fold change (Aza/veh), VPS36 (ProbeSet 11739960_a_at) / Fold change (ACY-1035/veh), VPS36 (ProbeSet 11739960_a_at) / RFU SYPL1 (11715823_x_at) / Fold change /veh SYPL1 (11715823_x_at) / RFU IGFBP7 (11715501_s_at) / Fold change /veh IGFBP7 (11715501_s_at) / RFU REEP3 (11722064_at) / Fold change /veh REEP3 (11722064_at) / RFU IGLL1 (11728026_x_at) / Fold change /veh IGLL1 (11728026_x_at): dose or concentration left out as unconfirmed. The settings on record: MV-4-11 cells, 48 hours.

SMILES strings stand for the structures.

For the molecule `Nc1ccc(-c2cccs2)cc1NC(=O)c1ccc2c(c1)cc(C1CC1)n2CCN1CCOCC1` [ACY-1035], the “RFU IGFBP7 (11715501_s_at)” value stood at 134.15 RFU.

The values are drawn from PMC5218480 (PLoS ONE, 2017).
